Reference: ChEMBL document CHEMBL5465560, “Selectivity Literature for EUbOPEN Chemogenomic Library” (2024)

How the values were obtained:
[1] = biological target: T1, Phosphatidylinositol 4,5-bisphosphate 3-kinase catalytic subunit delta isoform (Homo sapiens) (UniProt O00329); experiment: Selectivity interaction (Kinase panel (KiNativ target engagement assay in Jurkat cells)) EUB0001635a PIK3CD; format: cell-based; details: Selectivity number of off-targets 0.0, Selectivity number of targets 233.0, Source Knowledge https://www.sciencedirect.com/science/article/pii/S2451945619300674?via%3Dihub, at 1 µM
T1 sequence (whole entry): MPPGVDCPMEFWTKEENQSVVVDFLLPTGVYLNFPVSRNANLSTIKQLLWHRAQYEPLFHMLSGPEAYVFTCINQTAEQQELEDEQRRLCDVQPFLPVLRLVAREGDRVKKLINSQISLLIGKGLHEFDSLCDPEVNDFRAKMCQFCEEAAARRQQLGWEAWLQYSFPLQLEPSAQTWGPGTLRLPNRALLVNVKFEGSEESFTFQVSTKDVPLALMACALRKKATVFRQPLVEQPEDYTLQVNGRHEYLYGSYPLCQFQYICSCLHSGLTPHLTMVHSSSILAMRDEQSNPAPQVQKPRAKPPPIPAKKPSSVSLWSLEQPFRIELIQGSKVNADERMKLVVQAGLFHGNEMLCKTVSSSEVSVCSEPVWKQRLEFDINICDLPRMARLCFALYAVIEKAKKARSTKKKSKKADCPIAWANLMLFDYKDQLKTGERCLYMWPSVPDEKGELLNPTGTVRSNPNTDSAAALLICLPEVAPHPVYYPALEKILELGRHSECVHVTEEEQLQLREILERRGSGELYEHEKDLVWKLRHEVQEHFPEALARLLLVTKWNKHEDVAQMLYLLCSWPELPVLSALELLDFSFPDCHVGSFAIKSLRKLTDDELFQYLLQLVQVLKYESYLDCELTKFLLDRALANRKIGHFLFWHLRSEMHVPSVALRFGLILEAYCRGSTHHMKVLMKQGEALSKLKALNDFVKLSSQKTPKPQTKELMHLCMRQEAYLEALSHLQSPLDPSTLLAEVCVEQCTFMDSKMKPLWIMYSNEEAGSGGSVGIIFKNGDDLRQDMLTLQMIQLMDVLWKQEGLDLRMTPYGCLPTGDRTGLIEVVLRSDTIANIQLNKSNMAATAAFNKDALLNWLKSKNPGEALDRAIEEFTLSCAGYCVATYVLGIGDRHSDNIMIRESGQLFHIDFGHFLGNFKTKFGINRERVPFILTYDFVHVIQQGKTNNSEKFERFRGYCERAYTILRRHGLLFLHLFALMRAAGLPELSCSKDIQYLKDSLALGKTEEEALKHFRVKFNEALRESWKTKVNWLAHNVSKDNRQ

[2] = biological target: Phosphorylase b kinase gamma catalytic chain, skeletal muscle/heart isoform (Homo sapiens) (UniProt Q16816); experiment: Selectivity interaction (KinomeScan (DiscoverX)) EUB0000229b PHKG1; details: at 10 µM
Chain of Phosphorylase b kinase gamma catalytic chain, skeletal muscle/heart isoform (Homo sapiens) (Q16816 whole entry, looked up, canonical isoform): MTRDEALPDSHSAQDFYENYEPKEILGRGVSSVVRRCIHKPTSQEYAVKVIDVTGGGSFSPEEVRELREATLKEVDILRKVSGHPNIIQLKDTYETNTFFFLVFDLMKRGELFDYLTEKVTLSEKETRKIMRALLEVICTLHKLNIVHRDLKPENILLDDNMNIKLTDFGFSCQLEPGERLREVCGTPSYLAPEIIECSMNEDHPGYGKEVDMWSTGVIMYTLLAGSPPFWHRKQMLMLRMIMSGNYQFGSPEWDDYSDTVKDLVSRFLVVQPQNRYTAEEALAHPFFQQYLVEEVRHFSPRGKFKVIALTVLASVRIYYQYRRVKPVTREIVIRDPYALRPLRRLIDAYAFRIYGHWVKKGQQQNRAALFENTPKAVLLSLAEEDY

[3] = biological target: Tyrosine-protein kinase ABL2 (Homo sapiens, UniProt P42684); experiment: Selectivity interaction (KinomeScan (DiscoverX)) EUB0000595a ABL2; details: at 10 µM
[4] = biological target: Cyclin-dependent kinase 19 (Homo sapiens) (UniProt Q9BWU1); experiment: Selectivity interaction (KinomeScan (DiscoverX)) EUB0001079a CDK19; details: at 1 µM
[5] = biological target: Myosin-IIIa (Homo sapiens) (UniProt Q8NEV4); experiment: Selectivity interaction (LanthaScreen Eu Kinase Binding Assay) EUB0001632a MYO3A; details: at 10 µM
[6] = biological target: 5-hydroxytryptamine receptor 2A (Homo sapiens, UniProt P28223); experiment: Selectivity interaction (Panel of non-epigenetic targets (kinases, GPCRs, ion channels, and transporters, Eurofins) ) EUB0000271b HTR2A; details: at 1 µM
Chain of 5-hydroxytryptamine receptor 2A (P28223 whole entry): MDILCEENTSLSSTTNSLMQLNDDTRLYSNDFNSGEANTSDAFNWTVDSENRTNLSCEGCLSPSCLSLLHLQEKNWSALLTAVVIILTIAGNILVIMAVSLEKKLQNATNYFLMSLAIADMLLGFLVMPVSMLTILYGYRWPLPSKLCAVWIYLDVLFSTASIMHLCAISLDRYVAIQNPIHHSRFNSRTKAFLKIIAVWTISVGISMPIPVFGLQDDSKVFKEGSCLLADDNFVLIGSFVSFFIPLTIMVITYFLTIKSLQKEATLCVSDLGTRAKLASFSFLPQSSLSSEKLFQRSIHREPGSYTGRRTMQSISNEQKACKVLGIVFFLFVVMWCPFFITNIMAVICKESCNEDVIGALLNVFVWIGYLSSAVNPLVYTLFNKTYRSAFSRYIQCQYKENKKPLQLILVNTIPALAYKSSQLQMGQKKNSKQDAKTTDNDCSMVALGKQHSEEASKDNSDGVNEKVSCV

[7] = biological target: CDK8/Cyclin C (Homo sapiens) (UniProt P49336+P24863); experiment: Selectivity interaction (ProQinase) EUB0000171b CDK8; format: protein-complex assay
[8] = biological target: Activin receptor type-2A (Homo sapiens) (UniProt P27037); experiment: Selectivity interaction (KinomeScan (DiscoverX)) EUB0000607a ACVR2A; details: at 10 µM
Chain of Activin receptor type-2A (Homo sapiens) (P27037 whole entry): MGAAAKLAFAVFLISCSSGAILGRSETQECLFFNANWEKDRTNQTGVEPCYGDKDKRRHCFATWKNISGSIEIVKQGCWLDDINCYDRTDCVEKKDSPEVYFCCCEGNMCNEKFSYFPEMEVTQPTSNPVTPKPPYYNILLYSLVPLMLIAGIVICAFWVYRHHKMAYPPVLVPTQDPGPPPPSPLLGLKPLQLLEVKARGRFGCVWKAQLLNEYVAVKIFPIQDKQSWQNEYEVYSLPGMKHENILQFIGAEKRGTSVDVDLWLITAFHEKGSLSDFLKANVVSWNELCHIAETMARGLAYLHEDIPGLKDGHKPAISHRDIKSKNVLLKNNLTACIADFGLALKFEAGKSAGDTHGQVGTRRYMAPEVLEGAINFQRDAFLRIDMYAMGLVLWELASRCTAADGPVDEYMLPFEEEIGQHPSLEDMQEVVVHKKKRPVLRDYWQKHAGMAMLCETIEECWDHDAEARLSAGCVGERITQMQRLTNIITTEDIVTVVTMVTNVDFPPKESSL

[9] = biological target: Death-associated protein kinase 2 (Homo sapiens) (UniProt Q9UIK4); experiment: Selectivity interaction (KinomeScan (DiscoverX)) EUB0000618a DAPK2; details: at 10 µM
Chain of Death-associated protein kinase 2 (Homo sapiens) (Q9UIK4 whole entry, looked up): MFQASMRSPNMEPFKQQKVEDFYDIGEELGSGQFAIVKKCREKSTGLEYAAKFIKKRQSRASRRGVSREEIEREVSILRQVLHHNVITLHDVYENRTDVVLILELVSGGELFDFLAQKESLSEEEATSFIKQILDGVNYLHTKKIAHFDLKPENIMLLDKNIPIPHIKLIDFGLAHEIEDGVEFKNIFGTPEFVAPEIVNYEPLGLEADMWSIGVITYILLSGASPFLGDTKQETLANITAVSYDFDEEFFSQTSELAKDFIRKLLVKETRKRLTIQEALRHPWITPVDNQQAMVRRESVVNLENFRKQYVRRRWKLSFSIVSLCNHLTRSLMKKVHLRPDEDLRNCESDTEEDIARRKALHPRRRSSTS

[10] = biological target: Fibroblast growth factor receptor 4 (Homo sapiens, UniProt P22455); experiment: Selectivity interaction (KinomeScan (DiscoverX)) EUB0000618a FGFR4; details: at 10 µM
Chain of Fibroblast growth factor receptor 4 (P22455 22-802 limits assumed): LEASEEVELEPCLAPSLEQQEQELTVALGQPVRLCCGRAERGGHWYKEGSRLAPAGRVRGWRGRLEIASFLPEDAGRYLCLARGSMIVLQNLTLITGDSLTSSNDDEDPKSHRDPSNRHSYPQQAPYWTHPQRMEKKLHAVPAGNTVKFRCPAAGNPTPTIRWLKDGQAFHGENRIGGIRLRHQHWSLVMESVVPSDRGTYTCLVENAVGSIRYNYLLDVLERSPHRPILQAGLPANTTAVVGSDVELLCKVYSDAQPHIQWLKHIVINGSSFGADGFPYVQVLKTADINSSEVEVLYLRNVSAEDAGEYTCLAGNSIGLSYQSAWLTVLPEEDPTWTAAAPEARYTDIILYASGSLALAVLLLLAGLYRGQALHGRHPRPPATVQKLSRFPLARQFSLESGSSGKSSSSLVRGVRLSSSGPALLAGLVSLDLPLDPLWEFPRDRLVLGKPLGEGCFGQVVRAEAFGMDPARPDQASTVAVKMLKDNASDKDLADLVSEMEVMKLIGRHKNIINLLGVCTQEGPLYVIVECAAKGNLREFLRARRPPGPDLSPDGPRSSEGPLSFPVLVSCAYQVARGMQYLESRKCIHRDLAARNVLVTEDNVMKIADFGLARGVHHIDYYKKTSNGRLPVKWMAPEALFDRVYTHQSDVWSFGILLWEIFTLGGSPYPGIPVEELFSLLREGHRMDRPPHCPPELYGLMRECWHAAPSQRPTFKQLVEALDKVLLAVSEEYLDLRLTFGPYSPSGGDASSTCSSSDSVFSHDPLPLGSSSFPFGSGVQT

[11] = biological target: Serine/threonine-protein kinase PRP4 homolog (Homo sapiens) (UniProt Q13523); experiment: Selectivity interaction (ActivX KiNativ screen (kinase selectivity in THP-1 cell lysates)) EUB0000639a PRPF4; format: subcellular; details: lysate, at 0.01 µM
Chain of Serine/threonine-protein kinase PRP4 homolog (Homo sapiens) (Q13523 whole entry): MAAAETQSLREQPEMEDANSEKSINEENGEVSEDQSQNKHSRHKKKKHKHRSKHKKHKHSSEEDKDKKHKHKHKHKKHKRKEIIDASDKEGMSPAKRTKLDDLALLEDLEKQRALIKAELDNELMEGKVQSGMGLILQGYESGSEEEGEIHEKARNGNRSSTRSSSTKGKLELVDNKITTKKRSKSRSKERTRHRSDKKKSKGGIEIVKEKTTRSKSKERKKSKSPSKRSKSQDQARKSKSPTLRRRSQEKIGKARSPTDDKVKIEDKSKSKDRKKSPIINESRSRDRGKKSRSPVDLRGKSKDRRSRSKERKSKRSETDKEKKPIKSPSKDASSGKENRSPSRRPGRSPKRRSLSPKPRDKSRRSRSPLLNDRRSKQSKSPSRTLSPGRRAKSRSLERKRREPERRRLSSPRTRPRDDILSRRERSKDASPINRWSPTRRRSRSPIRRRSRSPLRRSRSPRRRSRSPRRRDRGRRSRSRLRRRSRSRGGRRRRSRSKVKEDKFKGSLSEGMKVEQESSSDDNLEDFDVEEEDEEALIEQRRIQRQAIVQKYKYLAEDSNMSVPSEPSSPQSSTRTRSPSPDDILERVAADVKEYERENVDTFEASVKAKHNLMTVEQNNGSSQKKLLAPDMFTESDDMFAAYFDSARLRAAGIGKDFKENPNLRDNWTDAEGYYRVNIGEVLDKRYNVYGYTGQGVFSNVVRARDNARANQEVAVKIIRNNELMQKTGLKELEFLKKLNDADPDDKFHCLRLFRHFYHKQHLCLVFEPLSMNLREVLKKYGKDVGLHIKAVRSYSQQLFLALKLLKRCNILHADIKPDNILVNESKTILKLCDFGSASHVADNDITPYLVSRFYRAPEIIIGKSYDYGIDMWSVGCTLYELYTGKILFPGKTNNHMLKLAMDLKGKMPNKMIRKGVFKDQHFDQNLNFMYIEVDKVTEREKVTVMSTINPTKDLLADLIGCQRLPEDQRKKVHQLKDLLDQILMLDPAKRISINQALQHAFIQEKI

[12] = biological target: T2, Dual specificity mitogen-activated protein kinase kinase 6 (Homo sapiens) (UniProt P52564); experiment: Selectivity interaction (ActivX KiNativ screen (kinase selectivity in THP-1 cell lysates)) EUB0000639a MAP2K6; format: subcellular; details: lysate, at 0.04 µM
T2 sequence (whole entry): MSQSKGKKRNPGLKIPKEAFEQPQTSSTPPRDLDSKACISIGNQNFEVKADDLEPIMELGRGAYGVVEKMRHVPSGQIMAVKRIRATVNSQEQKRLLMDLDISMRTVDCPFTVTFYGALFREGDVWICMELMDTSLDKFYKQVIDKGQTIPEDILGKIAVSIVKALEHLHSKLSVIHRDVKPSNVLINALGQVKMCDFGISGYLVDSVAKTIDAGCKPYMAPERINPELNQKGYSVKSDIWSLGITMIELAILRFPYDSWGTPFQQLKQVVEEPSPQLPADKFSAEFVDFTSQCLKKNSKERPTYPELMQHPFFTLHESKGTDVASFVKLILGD

[13] = biological target: Phosphatidylinositol 3-kinase catalytic subunit type 3 (Homo sapiens, UniProt Q8NEB9); experiment: Selectivity interaction (Kinase panel (Invitrogen)) EUB0000639a PIK3C3; details: at 200 nM
Chain of Phosphatidylinositol 3-kinase catalytic subunit type 3 (Q8NEB9 whole entry): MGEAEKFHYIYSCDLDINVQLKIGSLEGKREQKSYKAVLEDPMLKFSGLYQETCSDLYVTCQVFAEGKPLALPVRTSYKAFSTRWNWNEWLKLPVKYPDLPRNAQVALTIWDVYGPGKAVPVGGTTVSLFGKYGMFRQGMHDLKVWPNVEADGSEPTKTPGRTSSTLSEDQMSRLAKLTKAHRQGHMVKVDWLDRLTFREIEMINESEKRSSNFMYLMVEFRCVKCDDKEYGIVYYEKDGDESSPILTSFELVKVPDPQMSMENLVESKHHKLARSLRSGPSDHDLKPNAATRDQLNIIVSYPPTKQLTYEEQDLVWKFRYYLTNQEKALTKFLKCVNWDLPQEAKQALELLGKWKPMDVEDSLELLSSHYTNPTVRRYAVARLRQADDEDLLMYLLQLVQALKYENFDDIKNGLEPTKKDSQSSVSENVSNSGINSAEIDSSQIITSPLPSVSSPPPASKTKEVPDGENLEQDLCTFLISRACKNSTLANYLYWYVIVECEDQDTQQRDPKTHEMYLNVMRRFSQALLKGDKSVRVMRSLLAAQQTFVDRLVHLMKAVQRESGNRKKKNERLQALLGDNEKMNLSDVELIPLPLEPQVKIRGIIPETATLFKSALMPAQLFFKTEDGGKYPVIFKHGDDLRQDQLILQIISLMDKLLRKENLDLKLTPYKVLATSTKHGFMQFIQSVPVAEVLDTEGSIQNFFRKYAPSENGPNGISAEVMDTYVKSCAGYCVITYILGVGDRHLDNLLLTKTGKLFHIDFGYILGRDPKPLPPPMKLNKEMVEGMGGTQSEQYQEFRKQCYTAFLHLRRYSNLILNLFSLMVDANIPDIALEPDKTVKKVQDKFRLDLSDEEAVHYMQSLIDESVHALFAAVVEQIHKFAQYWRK

[14] = biological target: Interferon-induced, double-stranded RNA-activated protein kinase (Homo sapiens) (UniProt P19525); experiment: Selectivity interaction (ActivX KiNativ screen (kinase selectivity in THP-1 cell lysates)) EUB0000639a EIF2AK2; format: subcellular; details: lysate, at 0.01 µM
Chain of Interferon-induced, double-stranded RNA-activated protein kinase (Homo sapiens) (P19525 whole entry): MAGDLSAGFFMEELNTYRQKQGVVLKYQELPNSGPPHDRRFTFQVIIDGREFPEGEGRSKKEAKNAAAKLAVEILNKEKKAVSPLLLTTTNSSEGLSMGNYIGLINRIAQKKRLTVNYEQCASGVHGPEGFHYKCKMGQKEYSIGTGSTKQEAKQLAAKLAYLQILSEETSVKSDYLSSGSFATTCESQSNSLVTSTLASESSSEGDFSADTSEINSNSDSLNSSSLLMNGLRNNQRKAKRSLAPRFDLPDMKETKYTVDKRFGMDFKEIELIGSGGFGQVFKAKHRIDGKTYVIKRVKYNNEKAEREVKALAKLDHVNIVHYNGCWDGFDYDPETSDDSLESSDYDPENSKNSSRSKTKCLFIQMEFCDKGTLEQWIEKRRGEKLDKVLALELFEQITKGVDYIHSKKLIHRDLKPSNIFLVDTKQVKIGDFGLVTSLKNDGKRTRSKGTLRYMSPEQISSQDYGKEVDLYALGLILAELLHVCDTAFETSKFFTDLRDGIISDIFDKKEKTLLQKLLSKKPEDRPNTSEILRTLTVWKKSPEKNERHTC

[15] = biological target: Ribosomal protein S6 kinase alpha-2 (Homo sapiens) (UniProt Q15349); experiment: Selectivity interaction (ActivX KiNativ screen (kinase selectivity in THP-1 cell lysates)) EUB0000639a RPS6KA2; format: subcellular; details: lysate, at 0.01 µM
[16] = biological target: Mitogen-activated protein kinase kinase kinase 4 (Homo sapiens) (UniProt Q9Y6R4); experiment: Selectivity interaction (KinomeScan (DiscoverX)) EUB0000092b MAP3K4; details: at 10 µM
[17] = biological target: Mitogen-activated protein kinase 14 (Homo sapiens, UniProt Q16539); experiment: Selectivity interaction (Ambit KINOMEscan and KiNATiv profiling in Jurkat cells) EUB0000090b MAPK14; format: cell-based; details: at 1 µM

For C=CC(=O)Nc1ccc(C(=O)Nc2[nH]nc3c2CN(C(=O)N[C@H](CN(C)C)c2ccccc2)C3(C)C)cc1, which % of engagement [1] is on record?
Its % of engagement is -6.8%.

With COc1cc(N(C)c2ccnc3ccc(C(F)(F)F)cc23)cc(OC)c1OC as the compound, how does the % binding [2] read?
The % binding was 100%.

COCC(=O)NC/C=C/c1ccc2ncnc(Nc3ccc(Oc4ccc(C)nc4)c(C)c3)c2c1 [CP-724714] was tested. Which % of control [3] did it give?
Its % of control is 100%.

With Nc1cnc(N2CCc3cc(S(=O)(=O)Nc4c(F)cc(Cl)cc4F)cc(N4CCCC4=O)c32)nc1 [TP-020n] as the compound, how does the % of control [4] read?
The % of control was 100%.

With Cn1cc(-n2cnc3c(NCc4nc5cc(Cl)c(Cl)cc5[nH]4)nc(N4CCOCC4)nc32)cn1 as the compound, how does the % of inhibition [5] read?
The % of inhibition was -42.6%.

Which % of inhibition [6] does the source give for Cc1cc(C)cc([C@@H]2c3cc(C)ccc3NC(=O)CN2C(=O)c2ccc(Br)s2)c1 here?
The % of inhibition was 12%.

What does the source list for C=CC(=O)Nc1cccc(C(=O)Nc2ccc(Nc3cc(-c4[nH]c(SC)nc4C)ccn3)cc2)c1?
% of control ([7]; at 1 µM): 67%; % of control ([7]; at 5 µM): 29%

With CNC(=O)Nc1ccc(-c2nc(N3CC4CCC(C3)O4)c3cnn(C4CCC5(CC4)OCCO5)c3n2)cc1 as the compound, how does the % of control [8] read?
The % of control was 78%.

What does the source list for O[C@H]1CC[C@H](Nc2ncc3nc(Nc4c(F)cc(F)cc4F)n([C@H]4CCOC4)c3n2)CC1?
% of control [9]: 100%; % of control [10]: 74%

Which results are given for CC[C@@H]1[C@H](F)C(=O)N[C@@H]1COc1nccc2cc(C(N)=O)c(OC)cc12 [ZIMLOVISERTIB]?
% of inhibition [11]: 11%; % of inhibition [12]: 4.7%; % of inhibition [13]: -5.2%; % of inhibition [14]: -1.7%; % of inhibition [15]: -10.4%

How did the % of control [16] turn out when CCC(=O)N1CCN(c2ccc(-n3c(=O)ccc4cnc5ccc(-c6cnc7ccccc7c6)cc5c43)cc2C(F)(F)F)CC1 was run?
Its % of control is 47%.

With CN(C)C/C=C/C(=O)Nc1ccc(C(=O)N2CCCC(Nc3ncc(Cl)c(-c4c[nH]c5ccccc45)n3)C2)cc1 (stereo not drawn) as the compound, how does the % of control [17] read?
Its % of control is 92%.
